Reference: patent publication US20250051277A1, “DELIVERY OF THERAPEUTIC ALKALOID COMPOUNDS” (Sensorium Therapeutics, Inc., priority 2021, published 2025)
Read-outs that look alike come from different tables or passages of the source.

Assays:
[1] = Plasma Stability Assay of Example A3, human plasma; conditions: 5 μM, 37° C., % of prodrug compound remaining
[2] = format: physicochemical; conditions: SGF with pepsin, pH 1.5, 37° C., 0.5 mM
[3] = Plasma Stability Assay of Example A3, mouse plasma; conditions: 5 μM, 37° C., % of prodrug compound remaining
[4] = format: physicochemical; conditions: DI water, 25° C., 0.5 mM
[5] = 5 μM

Row | SMILES | Human Plasma Prodrug (%) ([1]; 0 min) | Human Plasma Prodrug (%) ([1]; 15 min) | Human Plasma Prodrug (%) ([1]; 30 min) | Human Plasma Prodrug (%) ([1]; 60 min) | Human Plasma Prodrug (%) ([1]; 120 min) | Human Plasma Prodrug (%) ([1]; 240 min) | Mouse Plasma Prodrug (%) ([3]; 0 min) | Mouse Plasma Prodrug (%) ([3]; 15 min) | Mouse Plasma Prodrug (%) ([3]; 60 min) | Mouse Plasma Prodrug (%) ([3]; 120 min) | Mouse Plasma Prodrug (%) ([3]; 240 min) | Mouse Plasma Prodrug (%) ([3]; 30 min) | Mouse Plasma Compound 001 (%) ([5]; 15 min) | Mouse Plasma Compound 001 (%) ([5]; 30 min) | Mouse Plasma Compound 001 (%) ([5]; 60 min) | Mouse Plasma Compound 001 (%) ([5]; 120 min) | Mouse Plasma Compound 001 (%) ([5]; 240 min) | Mouse Plasma Compound 001 (%) ([5]; 0 min) | also measured
1 | COc1ccc([C@@]23CCC(OC(=O)C(c4ccccc4)c4ccccc4)=C[C@@H]2N(C)CC3)cc1OC [Compound 306, [(3aS,7aS)-3a-(3,4-dimethoxyphenyl)-1-methyl-3,4,5,7a-tetrahydro-2H-indol-6-yl]2,2-diphenylacetate] | 100.0% | 89.5% | 75.2% | 53.7% | 32.4% | 13.8% | 100.0% | 6.2% | 1.6% | 0.4% | 0.1% |  |  |  |  |  |  |  | Condition 1 Conversion (%) ([2]; time 1 min): 0%; Condition 1 Conversion (%) ([2]; time 5 min): 0%; Condition 1 Conversion (%) ([2]; time 30 min): 0%; Condition 1 Conversion (%) ([2]; time 1 h): 0%; Condition 1 Conversion (%) ([2]; time 4 h): 0%; Condition 1 Conversion (%) ([2]; time 24 h): 0%; Condition 2 Conversion (%) ([4]; time 1 min): 0%; Condition 2 Conversion (%) ([4]; time 5 min): 0%; Condition 2 Conversion (%) ([4]; time 30 min): 0%; Condition 2 Conversion (%) ([4]; time 1 h): 0%; Condition 2 Conversion (%) ([4]; time 4 h): 0%; Condition 2 Conversion (%) ([4]; time 24 h): 0%
2 | COc1ccc([C@@]23CCC(OC(=O)c4cccc(N(C)C)c4)=C[C@@H]2N(C)CC3)cc1OC [Compound 307, [(3aS,7aS)-3a-(3,4-dimethoxyphenyl)-1-methyl-3,4,5,7a-tetrahydro-2H-indol-6-yl]3-(dimethylamino)benzoate] | 100.0% | 88.5% | 87.6% | 83.0% | 71.1% | 57.5% | 100.0% | 18.1% | 0.1% | 0.0% | 0.0% | 3.8% | 73.4% | 81.1% | 86.3% | 79.9% | 79.0% |  | 
3 | COc1ccc([C@@]23CCC(OC(=O)C(C)(C)C)=C[C@@H]2N(C)CC3)cc1OC [Compound 309, [(3aS,7aS)-3a-(3,4-dimethoxyphenyl)-1-methyl-3,4,5,7a-tetrahydro-2H-indol-6-yl]2,2-dimethylpropanoate] | 100.0% | 64.5% | 41.4% | 16.5% | 3.6% | 2.0% | 100.0% | 34.6% | 8.2% | 0.0% | 0.0% | 24.9% | 61.7% | 63.7% | 62.6% | 63.2% | 60.9% |  | Condition 1 Conversion (%) ([2]; time 1 min): 0%; Condition 1 Conversion (%) ([2]; time 5 min): 0%; Condition 1 Conversion (%) ([2]; time 30 min): 0%; Condition 1 Conversion (%) ([2]; time 1 h): 0%; Condition 1 Conversion (%) ([2]; time 4 h): 0%; Condition 1 Conversion (%) ([2]; time 24 h): 0%; Condition 2 Conversion (%) ([4]; time 1 min): 0%; Condition 2 Conversion (%) ([4]; time 5 min): 0%; Condition 2 Conversion (%) ([4]; time 30 min): 0%; Condition 2 Conversion (%) ([4]; time 1 h): 0%; Condition 2 Conversion (%) ([4]; time 4 h): 0%; Condition 2 Conversion (%) ([4]; time 24 h): 0%
4 | COc1ccc([C@@]23CCC(OC(=O)c4ccc(C(F)(F)F)cc4)=C[C@@H]2N(C)CC3)cc1OC [Compound 310] | 100.0% | 89.9% | 84.5% | 77.3% | 63.4% | 35.1% | 100.0% | 0.4% | 0.1% | 0.1% | 0.1% | 0.1% |  |  |  |  |  |  | 
5 | COc1ccc([C@@]23CCC(OC(=O)c4ccc(F)cc4)=C[C@@H]2N(C)CC3)cc1OC [Compound 353, (3aS,7aS)-3a-(3,4-dimethoxyphenyl)-1-methyl-2,3,3a,4,5,7a-hexahydro-1H-indol-6-yl4-fluorobenzoate] | 100% | 95.4% | 90.1% | 79.7% | 55.3% | 39.6% | 100% | 0% | 0% | 0% | 0% | 0% | 55% | 51.6% | 50.6% | 46.4% | 29.3% | 47.7% | 
6 | COc1ccc([C@@]23CCC(OC(=O)c4ccc(C#N)cc4)=C[C@@H]2N(C)CC3)cc1OC [Compound 354, (3aS,7aS)-3a-(3,4-dimethoxyphenyl)-1-methyl-2,3,3a,4,5,7a-hexahydro-1H-indol-6-yl4-cyanobenzoate] | 100% | 93% | 72% | 42% | 13% | 1% | 100% | 5% | 5% | 4% | 0% | 7% | 32.79% | 32.69% | 29.45% | 27.14% | 20.12% | 33.27% | 
7 | COc1ccc([C@@]23CCC(OC(=O)c4cccc(C(C)(C)C)c4)=C[C@@H]2N(C)CC3)cc1OC [Compound 375, (3aS,7aS)-3a-(3,4-dimethoxyphenyl)-1-methyl-2,3,3a,4,5,7a-hexahydro-1H-indol-6-yl3-(tert-butyl)benzoate] | 100% | >99% | >99% | 97% | 57% | 26% | 100% | 11% | 0% | 0% | 0% | 2% | 45.54% | 45.99% | 41.28% | 42.28% | 29.74% | 41.82% | 
